In the oligonucleotide strings, read from the 5' end, every base follows the letter of its sugar. An asterisk marks phosphorothioate; unmarked linkages are phosphodiester. Other units and linkages are bracketed, terminal groups are in braces. A string of capitals states the bases alone. d = 2'-deoxy (DNA); m = 2'-O-methyl; f = 2'-fluoro
Assays:
Type in all cases: cell-based, human
AR FL(1) = assay: AR protein knock-down by Western blot after siRNA transfection in 22RV1 cells: AR FL(1); conditions: 5 nM siRNA, 50 h post transfection, compared to controls
Summary of the method: (§1)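 siRNAs were forward-transfected with a lipid reagent at 5 nM final; LNCaP cells (full-length AR T877A) were harvested 72 h later and 22RV1 cells (AR splice variants) 50 h later. Lysates (30 ug protein/lane) were immunoblotted with an N-terminal AR antibody, α-tubulin as control, and quantified by infrared imaging.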

AR-SV(2) = assay: AR protein knock-down by Western blot after siRNA transfection in 22RV1 cells: AR-SV(2); conditions: 5 nM siRNA, 50 h post transfection, compared to controls
Summary of the method: as §1

AR-SV(3) = assay: AR protein knock-down by Western blot after siRNA transfection in 22RV1 cells: AR-SV(3); conditions: 5 nM siRNA, 50 h post transfection, compared to controls
Summary of the method: as §1

[1] = system: AR FL (full length AR T877A LBD mutant); assay: AR protein knock-down by Western blot after siRNA transfection in LNCaP cells: AR FL; conditions: 5 nM siRNA, 72 h post transfection, compared to controls
Summary of the method: as §1

AR mRNA [2] = assay: AR mRNA downregulation by RT-qPCR at 5 nM siRNA in 22RV1 cells; conditions: 24 hrs post-transfection
Protocol: (§2) Focusing on siRNAs targeting AR sequences exons 1 and 2, the ability of these siRNAs to downregulate AR mRNA at a concentration of 5 nM was determined by RT-qPCR. For this purpose, siRNAs were transfected into 22RV1 and LNCaP cells as described above. At 24 hrs post-transfection, RNA was harvested from cells using a Qiagen RNeasy® Plus Mini Kit or Stratec InviTrap® RNA Cell HTS96 kit. The concentration of each isolated RNA was determined via A260 measurement using a NanoDrop spectrophotometer. RNA samples were reverse transcribed to cDNA using the High Capacity RNA to cDNA Kit (Life Technologies) according to the manufacturer's instructions. cDNA samples were then quantified by qPCR using AR-specific probes and results normalized to either endogenous β-actin or PPIB using the standard 2^−ΔΔCt method. These studies identified 6 siRNAs that at a concentration of 5 nM down regulated AR mRNA in 22RV1 and LNCaP cells by more than 80% compared to controls (Table 4).

AR mRNA [3] = assay: AR mRNA downregulation by RT-qPCR at 5 nM siRNA in LNCaP cells; conditions: 24 hrs post-transfection
Protocol: as §2

AR mRNA [4] = assay: AR mRNA IC50 and maximal KD, siRNA at various concentrations, LNCaP cells, qPCR probes exon junctions 1/2 or 4/5
Protocol: as §2
(§3) To determine the concentration required to reduce AR expression by 50% (IC50) and maximal KD activity, these siRNAs were transfected into LNCaP, C4-2, and 22RV1 cells at various concentrations starting at 100 nM. C4-2 (MD Anderson) is an LNCaP subline that has been selected for resistance against clinically used AR antagonists (Wu et al., “Derivation of androgen-independent human LNCaP prostatic cancer cell sublines: Role of bone stromal cells,” International J Cancer 1994; 57:406-412). Cells were harvested 48 h post-transfection; RNA was prepared and analyzed as stated above. For these experiments, specific AR qPCR probes located at the exon junctions 1/2 or 4/5 were used that recognize most mRNAs of relevant AR isoforms or primarily full length AR mRNA, respectively. All tested siRNAs lowered AR expression with subnanomolar potency to 70% in 22RV1 cells and to ≥90% in LNCaP and C4-2 cells (Table 5). […]

AR mRNA [5] = assay: AR mRNA IC50 and maximal KD, siRNA at various concentrations, C4-2 cells, qPCR probes exon junctions 1/2 or 4/5
Protocol: as §2, §3

AR mRNA [6] = assay: AR mRNA IC50 and maximal KD, siRNA at various concentrations, 22RV1 cells, qPCR probes exon junctions 1/2 or 4/5
Protocol: as §2, §3

[7] = system: Prostate Specific Antigen (PSA); assay: AR and PSA levels by qRT-PCR after siRNA transfection in LNCaP cells; conditions: various concentrations, 3 days after transfection
Text: (§4) To monitor regulation of AR target genes as a consequence of siRNA-mediated changes in AR […], LNCaP cells were transfected with various concentrations of XD-01829 (also referred to as XD-0189), and the levels of AR and the Prostate Specific Antigen (PSA) monitored by qRT-PCR. PSA expression is positively regulated by AR and used clinically as a biomarker for AR activity in prostate cancer patients. […] A similar experiment compared the expression of AR, PSA and the Prostate-Specific Membrane Antigen (PSMA) in response to treatment with the AR antagonist Enzalutamide or AR siRNA XD-01829 (or XD-0189). PSMA expression is negatively regulated by AR. For these experiments, hormone therapy resistant 22RV1 cells were transfected with 5 nM of either a scrambled control siRNA (negative control, Enzalutamide group) or XD-01829 (or XD-0189) as described above. After incubation for 24 hours, the negative control and XD-01829 (or XD-0189) groups were treated with DMSO, and the enzalutamide group with 10 μM Enzalutamide. After incubation for 20 hours RNAs were prepared as outlined above and AR, PSA, and PSMA levels evaluated by qRT-PCR.

[8] = system: AR target gene expression (PSA, PSMA); assay: AR, PSA and PSMA levels by qRT-PCR in hormone therapy resistant 22RV1 cells, siRNA versus Enzalutamide; conditions: 5 nM siRNA (24 h + 20 h DMSO) or 10 μM Enzalutamide 20 hours
Text: as §4

[9] = AR qPCR probe at exon junction 1/2, 48 h post-transfection
[10] = AR qPCR probe at exon junction 1/2, 48 h post-transfection, read-out: IC50 (nM), LNCaP, Exon 1/2
[11] = AR qPCR probe at exon junction 4/5, 48 h post-transfection
[12] = AR qPCR probe at exon junction 4/5, 48 h post-transfection, read-out: IC50 (nM), LNCaP, Exon 4/5
[13] = AR qPCR probe at exon junction 1/2, 48 h post-transfection, read-out: IC50 (nM), C4-2, Exon 1/2
[14] = AR qPCR probe at exon junction 4/5, 48 h post-transfection, read-out: IC50 (nM), C4-2, Exon 4/5
[15] = AR qPCR probe at exon junction 1/2, 48 h post-transfection, read-out: IC50 (nM), 22RV1, Exon 1/2
[16] = AR qPCR probe at exon junction 4/5, 48 h post-transfection, read-out: IC50 (nM), 22RV1, Exon 4/5

| Substance | % KD AR Protein 22RV1 AR FL(1) (AR FL(1)) [%] | % KD AR Protein 22RV1 AR-SV(2) (AR-SV(2)) [%] | % KD AR Protein 22RV1 AR-SV(3) (AR-SV(3)) [%] | % KD AR Protein LNCaP AR FL [1] [%] | % KD AR RNA 22RV1 (AR mRNA [2]) [%] | % KD AR RNA LNCaP (AR mRNA [3]) [%] | max KD (%), LNCaP, Exon 1/2 (AR mRNA [4]; [9]) [%] | IC50 (AR mRNA [4]; [10]) [nM] | max KD (%), LNCaP, Exon 4/5 (AR mRNA [4]; [11]) [%] | IC50 (AR mRNA [4]; [12]) [nM] | max KD (%), C4-2, Exon 1/2 (AR mRNA [5]; [9]) [%] | IC50 (AR mRNA [5]; [13]) [nM] | max KD (%), C4-2, Exon 4/5 (AR mRNA [5]; [11]) [%] | IC50 (AR mRNA [5]; [14]) [nM] | max KD (%), 22RV1, Exon 1/2 (AR mRNA [6]; [9]) [%] | IC50 (AR mRNA [6]; [15]) [nM] | max KD (%), 22RV1, Exon 4/5 (AR mRNA [6]; [11]) [%] | IC50 (AR mRNA [6]; [16]) [nM] | AR and PSA levels [7] | regulation of AR target gene expression (PSA, PSMA) [8] |
| --- | --- | --- | --- | --- | --- | --- | --- | --- | --- | --- | --- | --- | --- | --- | --- | --- | --- | --- | --- | --- |
| XD-01829: AR siRNA with chemical modification, Id # 2822; sense X05353 (SEQ ID NO: 183), antisense X05354 (SEQ ID NO: 184) (sense mGmUfGmUfCmAfCmUfAmUfGmGfAmGfCmUfCmUfCdT*dT; antisense fGfAmGfAmGfCmUfCmCfAmUfAmGfUmGfAmCfAmCdT*dT) | 97 | 99 | 97 | 91 | 86 | 92 | 94.2 | 0.016 | 92.3 | 0.016 | 94.7 | 0.013 | 92.6 | 0.011 | 72.1 | 0.038 | 68.1 | 0.018 | highly correlated | regulate AR target gene expression |
| XD-01828: AR siRNA with chemical modification, Id # 2820; sense X05351 (SEQ ID NO: 181), antisense X05352 (SEQ ID NO: 182) (sense mGmGfGmUfGmUfCmAfCmUfAmUfGmGfAmGfCmUfCdT*dT; antisense fGfAmGfCmUfCmCfAmUfAmGfUmGfAmCfAmCfCmCdT*dT) | 80 | 89 | 92 | 90 | 96 | 84 | 84.8 | 0.023 | 81.7 | 0.028 | 81.1 | 0.022 | 77.7 | 0.02 | 51.7 | 0.042 | 50.7 | 0.028 |  |  |
| XD-01817: AR siRNA with chemical modification, Id # 1987; sense X05329 (SEQ ID NO: 159), antisense X05330 (SEQ ID NO: 160) (sense mAmAfGmGfUmUfCmUfCmUfGmCfUmAfGmAfCmGfAdT*dT; antisense fUfCmGfUmCfUmAfGmCfAmGfAmGfAmAfCmCfUmUdT*dT) | 83 | 91 | 86 | 99 | 83 | 87 | 83.4 | 0.018 | 87.2 | 0.017 | 83.6 | 0.021 | 84.1 | 0.023 | 49.3 | 0.059 | 61.1 | 0.043 |  |  |
| XD-01827: AR siRNA with chemical modification, Id # 2819; sense X05349 (SEQ ID NO: 179), antisense X05350 (SEQ ID NO: 180) (sense mUmGfGmGfUmGfUmCfAmCfUmAfUmGfGmAfGmCfUdT*dT; antisense fAfGmCfUmCfCmAfUmAfGmUfGmAfCmAfCmCfCmAdT*dT) | 89 | 92 | 93 | 90 | 89 | 86 | 81.7 | 0.053 | 84.5 | 0.06 | 83.2 | 0.052 | 85.7 | 0.052 | 38.7 | 0.108 | 54.0 | 0.068 |  |  |
| XD-01826: AR siRNA with chemical modification, Id # 2817; sense X05347 (SEQ ID NO: 177), antisense X05348 (SEQ ID NO: 178) (sense mUmCfUmGfGmGfUmGfUmCfAmCfUmAfUmGfGmAfGdT*dT; antisense fCfUmCfCmAfUmAfGmUfGmAfCmAfCmCfCmAfGmAdT*dT) | 87 | 92 | 93 | 91 | 89 | 81 | 84.6 | 0.041 | 86.0 | 0.035 | 86.5 | 0.049 | 87.0 | 0.046 | 52.4 | 0.146 | 64.8 | 0.057 |  |  |

Reference: patent US20220033434A1, “ANDROGEN RECEPTOR NUCLEIC ACIDS AND USES THEREOF” (Avidity Biosciences, Inc., priority 2016, published 2022)
